Reference: patent US12678464B2, “Methods for stem cell transplantation” (The UAB Research Foundation, priority 2015, dated 2026)
Converted amounts (≈) assume the structure as drawn. Read-outs that look alike come from different tables or passages of the source.

Experiments:
haploidentical HCT [1] = settings: CTN 0603; cited from earlier work
haploidentical HCT [2] = settings: at 1 year; cited from earlier work
[3] = constituted, cited from earlier work
[4] = LexiComp monograph; cited from earlier work
clinical = settings: human, in vivo, intravenous, 50 mg/kg
[5] = cited from earlier work
[6] = 1-octanol/water (pH 7.4) buffer solution; cited from earlier work
[7] = cited from earlier work; remark: listed apart in the source

Compound	relapse rate (haploidentical HCT [1])	relapse rate (haploidentical HCT [2])	physically and chemically stable ([3]; refrigerated)	physically and chemically stable ([3]; room temperature)	elimination half-life [4]	half-life (clinical)	solubility in acetone ([5]; acetone, in words)	solubility in ethanol ([5]; in words)	solubility in methanol ([5]; in words)	solubility in an acidic medium ([5]; pH 3.6)	solubility in water ([5]; pH 7.4)	solubility in water ([5]; water, in words)	apparent partition coefficient [6]	pKa ([7]; morpholino group)	pKa ([7]; phenolic group)	solubility in chloroform ([5]; chloroform, in words)
O=P1(N(CCCl)CCCl)NCCCO1 (stereo not shown) [Cyclophosphamide, 2-[bis(2-cholorethyl)amino]tetrahydro-2H-1,3,2-oxazaphosphorine 2-oxide monohydrate]	45%	51%	six	24 h	3 to 12 h	60 h										
COc1c(C)c2c(c(O)c1C/C=C(\C)CCC(=O)OCCN1CCOCC1)C(=O)OC2 [Mycophenolate mofetil, 2-morpholinoethyl (E)-6-(1,3-dihydro-4-hydroxy-6-methoxy-7-methyl-3-oxo-5-isobenzofuranyl)-4-methyl-4-hexenoate]							freely soluble	sparingly soluble	soluble	4270 µg/mL (≈ 9.85 mM)	43 µg/mL (≈ 0.0992 mM)	slightly soluble	238	5.6	8.5	
C=CC[C@@H]1/C=C(\C)C[C@H](C)C[C@H](OC)[C@H]2O[C@@](O)(C(=O)C(=O)N3CCCC[C@H]3C(=O)O[C@H](/C(C)=C/[C@@H]3CC[C@@H](O)[C@H](OC)C3)[C@H](C)[C@@H](O)CC1=O)[C@H](C)C[C@@H]2OC [Tacrolimus]								freely soluble	very soluble			practically insoluble				very soluble
